Source: ChEMBL document CHEMBL3045923, “Using a selectivity index to evaluate logarithmic spraying in grass seed crops” (Pest Manag Sci, 2009)

What was measured:
Festuca rubra [1] = experiment: Toxicity against Festuca rubra applied using logarithmic sprayer; assay type: organism-based; settings: in vivo
[2] = system: Poa pratensis subsp. pratensis; experiment: Herbicidal activity against Poa pratensis subsp. pratensis applied using logarithmic sprayer; assay type: functional
[3] = Ratio of ED50 for Festuca rubra L. to ED50 for Poa pratensis subsp. Pratensis
Festuca rubra [4] = experiment: Toxicity against Festuca rubra applied applied during spring season using logarithmic sprayer; assay type: organism-based; settings: in vivo
[5] = system: Poa pratensis subsp. pratensis; experiment: Herbicidal activity against Poa pratensis subsp. pratensis applied during spring season using logarithmic sprayer; assay type: functional
[6] = Selectivity index, ratio of ED10 for Festuca rubra L. to ED90 for Poa pratensis subsp. Pratensis
[7] = Ratio of ED50 for Festuca pratensis to ED50 for Poa pratensis subsp. Pratensis
[8] = Ratio of ED50 for Festuca arundinacea to ED50 for Poa pratensis subsp. Pratensis
[9] = Ratio of ED50 for Lolium perenne to ED50 for Poa pratensis subsp. Pratensis

| Structure (SMILES) | ED50 (Festuca rubra [1]) | ED50 [2] | other results |
| --- | --- | --- | --- |
| COc1nc(C)nc(NC(=O)NS(=O)(=O)c2cc(I)ccc2C(=O)O)n1 [IODOSULFURON] | 0.367 kg/ha | 0.184 kg/ha | – |
| CCCN(CCC)C(=O)SCc1ccccc1 [PROSULFOCARB] | – | 2.337 kg/ha | – |
| COc1cc(OC)nc(NC(=O)NS(=O)(=O)c2nc(C(F)(F)F)ccc2C(=O)O)n1 [FLUPYRSULFURON] | 0.024 kg/ha | 0.017 kg/ha | Ratio ED50 [3]: > 2; ED50 (Festuca rubra [4]): 0.04 kg/ha; ED50 [5]: 0.019 kg/ha |
| C#CCOC(=O)[C@@H](C)Oc1ccc(Oc2ncc(Cl)cc2F)cc1 [CLODINAFOP PROPARGYL] | 0.923 kg/ha | 0.192 kg/ha | Selectivity Index [6]: > 1 |
| CCOC(=O)[C@@H](C)Oc1ccc(Oc2nc3ccc(Cl)cc3o2)cc1 [FENOXAPROP-P-ETHYL] | 1.137 kg/ha | 0.408 kg/ha | Ratio ED50 [3]: > 2; Ratio ED50 [7]: > 2; ED90 [2]: 0.68 kg/ha; Ratio ED50 [8]: > 2 |
| O=C(O)CNCP(=O)(O)O [GLYPHOSATE] | 0.263 L/ha | – | – |
| CCS(=O)(=O)c1nc2ccccn2c1S(=O)(=O)NC(=O)Nc1nc(OC)cc(OC)n1 [SULFOSULFURON] | 0.007 kg/ha | 0.014 kg/ha | Ratio ED50 [9]: > 1 |
| CCC(CC)Nc1c([N+](=O)[O-])cc(C)c(C)c1[N+](=O)[O-] [PENDIMETHALIN] | 3.531 L/ha | 1.761 L/ha | – |
